According to patent US10968200B2, “Salts of an LSD1 inhibitor and processes for preparing the same” (priority 2018, dated 2021):
Structures can show the parent of a compound that is named as a salt. Where two headings read alike, the source gives them in different places.

Columns and labels:
[1] = Solubility measurement of Compound 1 di-HCl in various solvents; type: physicochemical; details: thermodynamic from solid; for solubility: by vision; for solubility at 24 h: agitated 24 h
[2] = as above; type: physicochemical; details: organic solvent or mixture, thermodynamic from solid; for solubility at 36 h: 25 °C, 25±1° C., agitated 36 h; for solubility at 24 h: 50 °C, 50±1° C., agitated 24 h
Experimental: The solubility of Compound 1 di-HCl was measured at 25±1° C. and 50±1° C. according to the following procedures.
Compound 1 di-HCl was added to 2 mL of a solvent listed in Table 3 at 25±1° C. until the solution became cloudy. Another 10 mg of Compound 1 di-HCl was then added. The mixture was agitated at 25±1° C. for 36 h. The supernatant was filtered using a syringe filter. The saturated solution was pipetted into an HPLC vial, which was diluted with acetonitrile. The solubility of Compound 1 di-HCl was calculated for each solvent.
Compound 1 di-HCl was added to 2 mL of a solvent listed in Table 3 at 50±1° C. until the solution became cloudy. Another 20-25 mg of Compound 1 di-HCl was then added. The mixture was agitated at 50±1° C. for 24 h. The supernatant was filtered using a warmed syringe filter at 50±1° C. The saturated solution was pipetted into an HPLC vial, which was diluted with acetonitrile. The solubility of Compound 1 di-HCl was calculated for each solvent.

Q: What does the source list for `N#CCC1(N2CCC(N[C@@H]3C[C@H]3c3ccccc3)CC2)CN(S(N)(=O)=O)C1` [Compound 1 di-HCl, 3-(cyanomethyl)-3-(4-{[(1R,2S)-2-phenylcyclopropyl]amino}piperidin-1-yl)azetidine-1-sulfonamide dihydrochloride]?
A: solubility at 36 h ([1]; 25 °C, organic solvent or mixture, solvent 1,4-Dioxane, 25±1° C., agitated 36 h): 200 µg/mL; solubility at 36 h ([1]; 25 °C, organic solvent or mixture, solvent 1-Propanol, 25±1° C., agitated 36 h): 4600 µg/mL; solubility at 36 h ([1]; 25 °C, organic solvent or mixture, solvent 5% Water in ACN, 25±1° C.): > 50000 µg/mL; solubility ([1]; 25 °C, organic solvent or mixture, solvent 5% Water in MeOH, 25±1° C., read-out: Solubility at 25° C.): > 50000 µg/mL; solubility ([1]; 25 °C, organic solvent or mixture, solvent ACN/water (9:1), 25±1° C., read-out: Solubility at 25° C.): > 50000 µg/mL; solubility ([1]; 25 °C, organic solvent or mixture, solvent ACN:Water (4:1), 25±1° C., read-out: Solubility at 25° C.): > 50000 µg/mL; solubility ([1]; 25 °C, organic solvent or mixture, solvent Chloroform, 25±1° C., read-out: Solubility at 25° C.): > 50000 µg/mL; solubility ([1]; 25 °C, organic solvent or mixture, solvent DMF, 25±1° C., read-out: Solubility at 25° C.): > 50000 µg/mL; solubility ([1]; 25 °C, organic solvent or mixture, solvent DMSO, 25±1° C., read-out: Solubility at 25° C.): > 50000 µg/mL; solubility at 36 h ([1]; 25 °C, organic solvent or mixture, solvent EtOH, 25±1° C., agitated 36 h): 3370 µg/mL; solubility at 36 h ([1]; 25 °C, organic solvent or mixture, solvent Ethyl formate, 25±1° C., agitated 36 h): 90 µg/mL; solubility at 36 h ([1]; 25 °C, organic solvent or mixture, solvent MEK, 25±1° C., agitated 36 h): 160 µg/mL; solubility at 36 h ([1]; 25 °C, organic solvent or mixture, solvent MIBK, 25±1° C., agitated 36 h): 60 µg/mL; solubility ([1]; 25 °C, organic solvent or mixture, solvent MeOH/ACN (10 v/3 v), 25±1° C., read-out: Solubility at 25° C.): > 50000 µg/mL; solubility ([1]; 25 °C, organic solvent or mixture, solvent MeOH/Water/ACN (6.0/0.5/1.0), 25±1° C., read-out: Solubility at 25° C.): > 50000 µg/mL; solubility ([1]; 25 °C, organic solvent or mixture, solvent MeOH/water/ACN (6 v/0.5 v/3.5 v), 25±1° C., read-out: Solubility at 25° C.): > 50000 µg/mL; solubility at 36 h ([1]; 25 °C, organic solvent or mixture, solvent MeOH/water/ACN (6 v/1 v/3 v), 25±1° C.): > 50000 µg/mL; solubility ([1]; 25 °C, organic solvent or mixture, solvent MeOH/water/ACN (6 v/1.5 v/3 v), 25±1° C., read-out: Solubility at 25° C.): > 50000 µg/mL; solubility at 36 h ([1]; 25 °C, organic solvent or mixture, solvent THF, 25±1° C., agitated 36 h): 40 µg/mL; solubility ([1]; 25 °C, solvent Water, 25±1° C., read-out: Solubility at 25° C.): > 50000 µg/mL; solubility at 24 h ([1]; 50 °C, organic solvent or mixture, solvent 2-Methoxyethanol, 50±1° C.): 48300 µg/mL; solubility at 24 h ([1]; 50 °C, organic solvent or mixture, solvent 5% Water in ACN, 50±1° C.): 45400 µg/mL; solubility ([1]; 50 °C, organic solvent or mixture, solvent 5% Water in MeOH, 50±1° C., read-out: Solubility at 50° C.): > 50000 µg/mL; solubility ([1]; 50 °C, organic solvent or mixture, solvent ACN/water (9:1), 50±1° C., read-out: Solubility at 50° C.): > 50000 µg/mL; solubility ([1]; 50 °C, organic solvent or mixture, solvent ACN:Water (4:1), 50±1° C., read-out: Solubility at 50° C.): > 50000 µg/mL; solubility at 24 h ([1]; 50 °C, organic solvent or mixture, solvent Acetone, 50±1° C.): 850 µg/mL; solubility ([1]; 50 °C, organic solvent or mixture, solvent Chloroform, 50±1° C., read-out: Solubility at 50° C.): > 50000 µg/mL; solubility ([1]; 50 °C, organic solvent or mixture, solvent DMF, 50±1° C., read-out: Solubility at 50° C.): > 50000 µg/mL; solubility ([1]; 50 °C, organic solvent or mixture, solvent DMSO, 50±1° C., read-out: Solubility at 50° C.): > 50000 µg/mL; solubility at 24 h ([1]; 50 °C, organic solvent or mixture, solvent IPA, 50±1° C.): 1910 µg/mL; solubility ([1]; 50 °C, organic solvent or mixture, solvent MeOH/ACN (10 v/3 v), 50±1° C., read-out: Solubility at 50° C.): > 50000 µg/mL; solubility ([1]; 50 °C, organic solvent or mixture, solvent MeOH/Water/ACN (6.0/0.5/1.0), 50±1° C., read-out: Solubility at 50° C.): > 50000 µg/mL; solubility ([1]; 50 °C, organic solvent or mixture, solvent MeOH/water/ACN (6 v/0.5 v/3.5 v), 50±1° C., read-out: Solubility at 50° C.): > 50000 µg/mL; solubility ([1]; 50 °C, organic solvent or mixture, solvent MeOH/water/ACN (6 v/1 v/3 v), 50±1° C., read-out: Solubility at 50° C.): > 50000 µg/mL; solubility ([1]; 50 °C, organic solvent or mixture, solvent MeOH/water/ACN (6 v/1.5 v/3 v), 50±1° C., read-out: Solubility at 50° C.): > 50000 µg/mL; solubility at 24 h ([1]; 50 °C, organic solvent or mixture, solvent Methanol, 50±1° C.): > 50000 µg/mL; solubility at 24 h ([1]; 50 °C, organic solvent or mixture, solvent n-BuOH, 50±1° C.): 2340 µg/mL; solubility ([1]; 50 °C, solvent Water, 50±1° C., read-out: Solubility at 50° C.): > 50000 µg/mL; solubility ([1]; MeOH/water/ACN (5 v/2 v/3 v), 25 °C, organic solvent or mixture, solvent Me0H/water/ACN (5 v/2 v/3 v), 25±1° C., read-out: Solubility at 25° C.): > 50000 µg/mL; solubility ([1]; MeOH/water/ACN (5 v/2 v/3 v), 50 °C, organic solvent or mixture, solvent Me0H/water/ACN (5 v/2 v/3 v), 50±1° C., read-out: Solubility at 50° C.): > 50000 µg/mL; solubility at 36 h ([2]; solvent 2-Methoxyethanol): 45900 µg/mL; solubility at 36 h ([2]; solvent Acetone): 3490 µg/mL; solubility at 36 h ([2]; solvent IPA): 1310 µg/mL; solubility at 36 h ([2]; solvent MeCN): 610 µg/mL; solubility at 36 h ([2]; solvent Methanol): 32300 µg/mL; solubility at 36 h ([2]; solvent n-BuOH): 1310 µg/mL; solubility at 24 h ([2]; solvent 1,4-Dioxane): 310 µg/mL; solubility at 24 h ([2]; solvent 1-Propanol): 5210 µg/mL; solubility at 24 h ([2]; solvent Dichloromethane): 60 µg/mL; solubility at 24 h ([2]; solvent EtOAc): 30 µg/mL; solubility at 24 h ([2]; solvent EtOH): 3630 µg/mL; solubility at 24 h ([2]; solvent Ethyl formate): 50 µg/mL; solubility at 24 h ([2]; solvent MEK): 160 µg/mL; solubility at 24 h ([2]; solvent MIBK): 130 µg/mL; solubility at 24 h ([2]; solvent MeCN): 6290 µg/mL; solubility at 24 h ([2]; solvent THF): 90 µg/mL
